Series [1] deals with electrically and chemically induced seizures. Briefly: anticonvulsant activity in animal tests (electrically and chemically induced seizures). It is filed as in vivo. The settings on record: rat and mouse, oral. As for the experimental part: (§1) The pharmacological activity of the compounds of the invention have been determined according to the following procedures. Their anticonvulsant activity was determined in the metrazol antagonism test in mice (MMS) (Soaje-Echaque E; Lim RKS, J Pharmac Exp Ther 1962, 138, 224; Desmedt LKC; Niemegeers CJE; Lewi PJ; Janssen PAJ, Arzneim-Forsch (Drug Res), 1976, 26, 1592) and the electroshock test in mice (MES)(Tulloch IF; Walter DS; Howe GM; Howe SJ, Neuropharmacology 1982, 21, 555).

For series [2], the system named is maximal electroshock seizures (MES). Briefly: electroshock test, maximal electroshock seizures (MES), inhibition of hind limb tonus, rat. It is filed as in vivo. As to conditions: read-out: Inhibition of Hind Limb Tonus ED50 (limits), RAT MES.
In series [3] the test system is trained animals fall off the rotorod. Description: neurotoxicity, rotorod test, mouse. The class given is in vivo, mice. As to conditions: oral, rotorod. On the technique in general: Falling from the rotarod earlier than controls is read as motor impairment.
Text: (§2) ^(a) Dose at which 50% of trained animals fall off the rotorod
Series [4] in a line: neurotoxicity, rotorod test, mouse. As to conditions: in vivo, po. It is filed as in vivo, mice.
Text: as §2
Series [5] has as its system maximal metrazol seizures (MMS). Description: metrazol antagonism test, maximal metrazol seizures (MMS), inhibition of hind limb tonus, mouse. The class given is in vivo. The settings on record: read-out: Inhibition of Hind Limb Tonus ED50 (limits), MOUSE MMS. How it is done: as §1
Series [6] concerns maximal electroshock seizures (MES). Description: electroshock test, maximal electroshock seizures (MES), inhibition of hind limb tonus, mouse. The class given is in vivo. The settings on record: read-out: Inhibition of Hind Limb Tonus ED50 (limits), MOUSE MES. As for the experimental part:
as §1
(In the maximal electroshock model the usual endpoint is tonic extension of the hind limbs.)

[7] abbreviates: rat, MES, oral, t=1 hour, limits in parentheses.
The mark [8] stands for this setting: mouse, MMS, oral, t=1 hour, limits in parentheses.
Setting [9] is: mouse, MES, oral, t=1 hour, limits in parentheses.

Read-outs that look alike come from different tables or passages of the source.

These results are taken from US4786627A, “Thiadiazole guanidines” (Reckitt & Colman Products Limited, priority 1987, dated 1988).

Usually ED50 stands for the dose that gives a 50% effect, or the effect in half of the subjects. One may read the TD50 as the dose at which the toxic effect under study appears in half of the subjects. Read a low TD50 as greater toxicity. For the compound `Cl.N=C(N)Nc1nnc(-c2ccccc2C(F)(F)F)s1` [Example 1, 2-Guanidino-5-[2-(trifluoromethyl)phenyl]-1,3,4-thiadiazole hydrochloride], the “anticonvulsant activity (in words)” value in series [1] is “potent anticonvulsants blocking both electrically and chemically induced seizures”. In addition, the ED50 in series [2] (setting [7]) was 22 mg/kg; in series [5] (setting [8]) it was 45 mg/kg; in series [6] (setting [9]), 27 mg/kg. Further, the “level of neurotoxicity (in words)” value in series [3] is recorded as “acceptable level”. Further, the TD50 at 1 h in series [4] worked out at 324 mg/kg.
Take `C/N=C(\N)Nc1nnc(-c2ccccc2C(F)(F)F)s1` [Example 2, 2-(3-Methylguanidino)-5-[2-(trifluoromethyl)phenyl]-1,3,4-thiadiazole]: the “level of neurotoxicity (in words)” value in series [3] is recorded as “acceptable level”. The TD50 at 1 h in series [4] is more than 400 mg/kg. Besides, the ED50 in series [5] (setting [8]) worked out at 44 mg/kg; in series [6] (setting [9]) it was 49 mg/kg.
Consider `NC(=O)N1c2ccccc2C=Cc2ccccc21` [carbamazepine], for which the values for the ED50 in series [2] (setting [7]), in series [5] (setting [8]) and in series [6] (setting [9]) were 4 mg/kg, 11 mg/kg and 20 mg/kg, respectively.
As for `CCC1(c2ccccc2)C(=O)NC(=O)NC1=O` [phenobarbital], the ED50 in series [2] (Rattus norvegicus, po, 1 h) turned out to be 9 mg/kg; in series [5] (Mus musculus, po, 1 h), 4 mg/kg; in series [6] (Mus musculus, po, 1 h) it was 12 mg/kg.
In the case of `O=C1NC(=O)C(c2ccccc2)(c2ccccc2)N1` [phenytoin], the 50% effective dose (ED50) in series [2] (setting [7]) came to 14 mg/kg; in series [5] (setting [8]) it was 8 mg/kg; in series [6] (setting [9]) it was 8 mg/kg.
